Tests used:
α4β2δ GABAA receptors = test: Whole cell patch clamp of GABA-gated current, recombinant receptors in HEK-293 cells; format: cell-based, human or mouse α4, rat β2, human δ; details: 30 nM THP
Description: Recombinant receptors: Transfection—Plasmids obtained from S. Vicini (rat α1, α5, β2, β3 and γ2), P. Whiting (human α4 and δ) and N. L. Harrison (mouse α4) were propagated in E coli DH5α and prepared using Qiagen Maxi- or Midi-prep kits. (Rat, mouse and human α1, β2, β3 and γ2 subunits are identical or nearly identical.) All receptors were transfected at a 1:1:1 ratio, except α1β2γ2 (1:1:5)^12, α4βδ (5:1:5)^13 and α4β2γ2 (5:1:1). HEK-293 cells were maintained in medium (DMEM:Ham's F-12 1:1) supplemented with 10% fetal calf serum at 37° C. in a humid 5% CO2 atmosphere. Cells were transfected using calcium phosphate or Polyfect (Qiagen) and co-transfected with enhanced green fluorescent protein (ratio of DNA to eGFP was 6:1 or 10:1 depending on the DNA concentration) for visualization. α4-containing GABAA receptors required 2-3 d for maximal levels of expression; all other receptors were recorded 1-2 d after transfection. Because mouse α4 and human α4-containing receptors yielded the same results, the currents were averaged together.
Whole cell patch clamp recording—GABA-gated currents were recorded at room temperature (20-22° C.) at a holding potential of −50 mV^14. The pipet solution contained (in mM): N-methyl-D-glucamine chloride 120, Cs4BAPTA 5 (Calbiochem), Mg-ATP 5, and an ATP regeneration system (20 mM Tris phosphocreatine and creatine kinase). Internal [Cl^−] or the holding potential were varied, using gluconate as the anion, to alter the direction of Cl^− flow, corrected for the junction potential. In some cases, current-voltage curves were constructed using the peak current response to agonist or agonist+THP across a range of holding potentials (−60 to +60) applied as 10 mV steps, or as a voltage ramp. […] Traces are presented as the average of 3 traces after subtraction of the leak current. […] This rapid application technique yields currents with a rapid rise phase. THP was also bath applied 30 s prior to tests of steroid effects. Currents were recorded using an Axopatch 1D amplifier (Axon Instruments) filtered at 2 kHz (four-pole Bessel filter) and detected at 10 kHz (pClamp 5.1). Analysis of peak current was accomplished with pClamp 9.2 and Origin software (Microcal).
Following the recording, the patch was blown out, and the open tip potential recorded using solutions with a 5% difference in NaCl osmolarity to verify the approximate solution exchange time. The time constant (τ) for desensitization was approximated using non-linear curve fitting routines with Levenburg-Marquardt algorithms (Origin software, Microcal). Goodness of fit was determined by minimizing the sum of the squares of deviations of the theoretical curve from the experimental points.
Recombinant receptors: Human embryonic kidney (HEK)-293 cells were transfected with α4 β2δ or other indicated subunit combinations (see Supplementary Methods) and co-transfected with enhanced green fluorescent protein for visualization. GABA-gated currents were recorded at room temperature (20-22° C.) at a holding potential of −50 mV^17 using a pipet solution containing 120 mM: N-methyl-D-glucamine chloride. Internal [Cl^−] or the holding potential were varied to alter the direction of Cl^− flow. […] Currents were recorded using an Axopatch 1D amplifier (Axon Instruments) filtered at 2 kHz (four-pole Bessel filter), detected at 10 kHz and analyzed with pClamp 9.2. Desensitization rate was determined using non-linear curve-fitting routines (Origin, Microcal; see next section).
Further Studies with Recombinant receptors: Transfection—Plasmids obtained from S. Vicini (rat α1, α5, β2, β3 and y2), P. Whiting (human α4 and 6) and N. L. Harrison (mouse α4) were propagated in E coli DH5α and prepared using Qiagen Maxi- or Midi-prep kits. (Rat, mouse and human α1, β2, β3 and γ2 subunits are identical or nearly identical.) All receptors were transfected at a 1:1:1 ratio, except a132γ2 (1:1:5)^12, α4β28 (5:1:5)^13 and α4β2γ2 (5:1:1). […]

[1] = test system: CA1 hippocampal pyramidal cells; test: Input resistance and neuronal excitability (spiking), hippocampal slice; format: cell-based, mouse
Description: Tonic current was recorded as the difference current produced by 120 μM gabazine, which blocks all GABAA receptor, before and after 30 nM THP^24. Current was also recorded in response to 2 s 10 mV steps in the holding potential, and current-voltage curves generated to the steady-state current. Because fast-inactivating conductances would not be excluded in a voltage ramp, stable steady-state current responses were used instead to construct the current-voltage (IV) curves. Input resistance (Rm) was calculated from the current response to voltage steps from −60 to −40 mV using Ohm's Law. The reversal potential was determined by the […] of the IV curve (−90 to −10 mV). The gabazine-sensitive slope conductance was assessed as the slope of the linear portion of outward current plot recorded before and after THP after subtraction of the gabazine-generated current (in the presence of L-655,708 to block α5-GABAA receptors). Only data with a stable baseline and pipet access resistance <10 MΩ were included in the analysis.
Effects of THP on cell excitability were tested by monitoring spiking using cell attached patch recordings^31 in voltage clamp mode (−40 mV holding potential, 150 mM NaCl intrapipet solution) or assessing the current threshold to spiking and spike frequency in current clamp mode (0.01-0.3 nA steps, starting from −1 nA, 1 s duration). (More complete details are supplied in the Supplementary Methods.)

[2] = puberty, whole cell current clamp

## CC(=O)[C@H]1CC[C@H]2[C@@H]3CC[C@H]4C[C@H](O)CC[C@]4(C)[C@H]3CC[C@]12C [THP, 3α-OH-5α[β]-pregnan-20-one]
α4β2δ GABAA receptors
  effect on Cl− reversal potential: did not itself alter the Cl^− reversal potential
α4β2δ GABAA receptors; no GABA
  effect applied without GABA: had no effect
α4β2δ GABAA receptors; 20 nM GABA
  effect on outward current gated by 20 nM GABA: potentiated
α4β2δ GABAA receptors; 1 μM GABA
  effect on inward currents: robustly increased inward currents
α4β2δ GABAA receptors; 1 μM GABA, −50 mV, mean±SEM
  decrease of outward GABA-gated Cl− current: 28±3%
α4β2δ GABAA receptors; 100 μM GABA
  effect on peak current: unchanged
α4β2δ GABAA receptors; 100 μM GABA for 2 s, pre-THP 8±2%
  desensitization of outward currents: 87±5.6%
α4β2δ GABAA receptors; 100 μM GABA, pre-THP 1700±200 ms
  time constant (τ) of desensitization: 230 ± 35 ms
α4β2δ GABAA receptors; across a range of voltage steps
  decrease of conductance of the outward current: 36-43%
[1]; 30 nM THP, puberty, 10 mV steps −60 to −40
  increase of input resistance: 38±5%
[1]; before puberty
  effect on input resistance: decreased input resistance
  effect on neuronal excitability: decreased neuronal excitability
[1]; puberty
  effect on spiking, cell-attached: increased spiking
[1]; [2]
  effect on action potential frequency: increased action potential frequency
  effect on current threshold for spiking (I threshold): reduced the amount of current necessary for triggering a spike
[1]; slices from δ−/− mice
  THP-induced increase of input resistance: not seen
  excitatory effect on neuronal firing: not observed
